Common to all, as to assay type: functional
Experiment [1] concerns SR. Briefly: Growth inhibition of Homo sapiens (human) SR cells at 10 uM after 48 hr by SRB assay. As to conditions: read-out: GI.
In experiment [2] the test system is HOP-92. Nature of the experiment: Growth inhibition of Homo sapiens (human) HOP92 cells at 10 uM after 48 hr by SRB assay. As to conditions: HOP-92, 48 h, read-out: GI.
Experiment [3] has as its system MOLT-4. Nature of the experiment: Growth inhibition of Homo sapiens (human) MOLT4 cells at 10 uM after 48 hr by SRB assay. To be noted: MOLT-4, 48 h, read-out: GI.
Experiment [4] has as its system RPMI-8226. Briefly: Growth inhibition of Homo sapiens (human) RPMI8226 cells at 10 uM after 48 hr by SRB assay. To be noted: RPMI-8226, 48 h, read-out: GI.
For experiment [5], the system named is K562. Briefly: Growth inhibition of Homo sapiens (human) K562 cells at 10 uM after 48 hr by SRB assay. As to conditions: K562, 48 h, read-out: GI.
The subject of experiment [6] is CCRF-CEM. Briefly: Growth inhibition of Homo sapiens (human) CCRF-CEM cells at 10 uM after 48 hr by SRB assay. To be noted: read-out: GI.
Experiment [7] has as its system NCI-H23. Nature of the experiment: Growth inhibition of Homo sapiens (human) NCI-H23 cells at 10 uM after 48 hr by SRB assay. To be noted: NCI-H23, 48 h, read-out: GI.
In experiment [8] the test system is HL-60(TB). Nature of the experiment: Growth inhibition of Homo sapiens (human) HL-60(TB) cells at 10 uM after 48 hr by SRB assay. As to conditions: HL-60, 48 h, read-out: GI.
Experiment [9] concerns RPMI-8226. Briefly: Cytotoxicity against Homo sapiens (human) RPMI8226 cells after 48 hr by SRB assay.
Experiment [10] deals with T47D. Nature of the experiment: Growth inhibition of Homo sapiens (human) T47D cells at 10 uM after 48 hr by SRB assay. As to conditions: read-out: GI.
Experiment [11] has as its system SNB-75. Nature of the experiment: Cytotoxicity against Homo sapiens (human) SNB75 cells after 48 hr by SRB assay. To be noted: SNB-75, 48 h.
In experiment [12] the test system is SF-539. Nature of the experiment: Cytotoxicity against Homo sapiens (human) SF539 cells after 48 hr by SRB assay. As to conditions: SF-539, 48 h.
Experiment [13] concerns EKVX. Nature of the experiment: Cytotoxicity against Homo sapiens (human) EKVX cells after 48 hr by SRB assay.
For experiment [14], the system named is A498. Nature of the experiment: Cytotoxicity against Homo sapiens (human) A498 cells after 48 hr by SRB assay. To be noted: A498, 48 h.
The test system of experiment [15] is OVCAR-4. Nature of the experiment: Cytotoxicity against Homo sapiens (human) OVCAR4 cells after 48 hr by SRB assay. As to conditions: OVCAR-4, 48 h.
The test system of experiment [16] is CCRF-CEM. Briefly: Cytotoxicity against Homo sapiens (human) CCRF-CEM cells after 48 hr by SRB assay.
In experiment [17] the test system is UO-31. Nature of the experiment: Cytotoxicity against Homo sapiens (human) UO31 cells after 48 hr by SRB assay. To be noted: UO-31, 48 h.
For experiment [18], the system named is PC-3. Nature of the experiment: Growth inhibition of Homo sapiens (human) PC3 cells at 10 uM after 48 hr by SRB assay. As to conditions: PC-3, 48 h, read-out: GI.
Experiment [19] deals with HOP-92. Nature of the experiment: Cytotoxicity against Homo sapiens (human) HOP92 cells after 48 hr by SRB assay. As to conditions: HOP-92, 48 h.
Experiment [20] concerns HL-60(TB). Briefly: Cytotoxicity against Homo sapiens (human) HL-60(TB) cells after 48 hr by SRB assay. To be noted: HL-60, 48 h.
The test system of experiment [21] is BT-549. Nature of the experiment: Cytotoxicity against Homo sapiens (human) BT549 cells after 48 hr by SRB assay. To be noted: BT-549, 48 h.
Experiment [22] has as its system SF-268. Nature of the experiment: Cytotoxicity against Homo sapiens (human) SF268 cells after 48 hr by SRB assay. As to conditions: SF-268, 48 h.
For experiment [23], the system named is HCC 2998. Briefly: Cytotoxicity against Homo sapiens (human) HCC2998 cells after 48 hr by SRB assay. As to conditions: HCC 2998, 48 h.
Experiment [24] relates to SNB-75. Briefly: Growth inhibition of Homo sapiens (human) SNB75 cells at 10 uM after 48 hr by SRB assay. To be noted: SNB-75, 48 h, read-out: GI.
The test system of experiment [25] is OVCAR-3. Briefly: Cytotoxicity against Homo sapiens (human) OVCAR3 cells after 48 hr by SRB assay. As to conditions: OVCAR-3, 48 h.
The test system of experiment [26] is HOP-62. Nature of the experiment: Cytotoxicity against Homo sapiens (human) HOP62 cells after 48 hr by SRB assay. To be noted: HOP-62, 48 h.
Experiment [27] has as its system T47D. Nature of the experiment: Cytotoxicity against Homo sapiens (human) T47D cells after 48 hr by SRB assay.
Experiment [28] relates to UACC-62. Briefly: Cytotoxicity against Homo sapiens (human) UACC62 cells after 48 hr by SRB assay. As to conditions: UACC-62, 48 h.
Experiment [29] has as its system MCF7. Nature of the experiment: Growth inhibition of Homo sapiens (human) MCF7 cells at 10 uM after 48 hr by SRB assay. To be noted: MCF7, 48 h, read-out: GI.
The subject of experiment [30] is MDA-MB-231. Nature of the experiment: Cytotoxicity against Homo sapiens (human) MDA-MB-231 cells after 48 hr by SRB assay. To be noted: MDA-MB-231, 48 h.
In experiment [31] the test system is IGROV-1. Nature of the experiment: Cytotoxicity against Homo sapiens (human) IGROV1 cells after 48 hr by SRB assay. As to conditions: IGROV-1, 48 h.
Experiment [32] relates to SR. Nature of the experiment: Cytotoxicity against Homo sapiens (human) SR cells after 48 hr by SRB assay.
Experiment [33] concerns CAKI-1. Briefly: Growth inhibition of Homo sapiens (human) CAKI-1 cells at 10 uM after 48 hr by SRB assay. To be noted: CAKI-1, 48 h, read-out: GI.
The test system of experiment [34] is A498. Briefly: Growth inhibition of Homo sapiens (human) A498 cells at 10 uM after 48 hr by SRB assay. To be noted: A498, 48 h, read-out: GI.
The subject of experiment [35] is UO-31. Nature of the experiment: Growth inhibition of Homo sapiens (human) UO31 cells at 10 uM after 48 hr by SRB assay. To be noted: UO-31, 48 h, read-out: GI.
Experiment [36] relates to OVCAR-5. Nature of the experiment: Growth inhibition of Homo sapiens (human) OVCAR5 cells at 10 uM after 48 hr by SRB assay. As to conditions: OVCAR-5, 48 h, read-out: GI.
The subject of experiment [37] is BT-549. Briefly: Growth inhibition of Homo sapiens (human) BT549 cells at 10 uM after 48 hr by SRB assay. As to conditions: BT-549, 48 h, read-out: GI.
Experiment [38] relates to MDA-MB-468. Nature of the experiment: Growth inhibition of Homo sapiens (human) MDA-MB-468 cells at 10 uM after 48 hr by SRB assay. To be noted: MDA-MB-468, 48 h, read-out: GI.

In ChEMBL document CHEMBL3046164, “A facile synthesis of some 3-cyano-1,4,6-trisubstituted-2(1H)-pyridinones and their biological evaluation as anticancer agents” (2011) one finds inhibition of growth, GI50 and TGI data, which are given here for 12 compounds.

Where “and” joins values, the source holds several entries; their conditions need not be identical. Equal entries are not always repeated.

For `COc1ccc(-c2cc(-c3cccs3)n(C(C)=O)c(=O)c2C#N)cc1`, the inhibition of growth at 10 µM in experiment [1] amounted to 30.5%; in experiment [2] it was 29.6%.
Consider `COc1ccc(-c2cc(-c3cccs3)n(S(=O)(=O)c3ccccc3)c(=O)c2C#N)cc1`, for which the inhibition of growth at 10 µM in experiment [3] was found to be 28.1%; in [4], 22%; in experiment [5] it was 27.7%; in [2], 21.3%; in [6] it was 56.2%; in experiment [7], 20%. In addition, in experiment [8], the inhibition of growth at 10 µM was determined as 55%.
As to `COc1ccc(-c2cc(-c3cccn3C)c(C#N)c3nnc(C)n23)cc1OC`, the GI50 in [9] is 45.7 µM and 19 µM; in [11] it was 44.7 µM; in experiment [12], more than 100 µM; in experiment [13] it was 0.01 µM; in experiment [14] it was 25.7 µM; in experiment [15], more than 100 µM. The GI50 in [16], in experiment [17], in [19], in experiment [20], in experiment [21] and in [22] was more than 100 µM each time. Besides, the concentration for 50% growth inhibition (GI50) in [23] was more than 100 µM; in [25] it was more than 100 µM; in [26] it was 37.1 µM; in experiment [27], more than 100 µM; in [28], 95.5 µM; in experiment [30] it was more than 100 µM. Moreover, the 50% growth inhibitory concentration (GI50) in experiment [31] and in [32] was more than 100 µM each time. Further, the inhibition of growth at 10 µM stood at 34.3% in [10]; 23.8% in [18]; 41.5% in experiment [5]; 48% in [2]; 25.8% in [24]; 39.2% in experiment [6]. Moreover, the inhibition of growth at 10 µM in [29] was 29%. This compound yielded a TGI in experiment [13] of 0.03 µM.
As to `COc1ccc(-c2cc(-c3cccn3C)c(C#N)c(=O)n2C(=S)Nc2ccc(F)cc2)cc1OC`, the inhibition of growth at 10 µM in experiment [1] turned out to be 27.8%; in [5] it was 26.9%; in experiment [33], 31.1%.
Turning to `CCn1c(-c2ccc(OC)c(OC)c2)cc(-c2cccn2C)c(C#N)c1=O`, the inhibition of growth at 10 µM is 44% in experiment [34], 63.5% in [5], 29% in [2] and 43.7% in [6].
Turning to `Cn1cccc1-c1cc(-c2ccc(Br)cc2)n(C=O)c(=O)c1C#N`, the inhibition of growth at 10 µM in [35] came out at 29.7%; in [5], 54.8%; in [36] it was 26.9%; in [2] it was 24.2%.
Take `COc1ccc(-c2cc(-c3cccn3C)c(C#N)c(=O)n2S(=O)(=O)c2ccccc2)cc1OC`: the inhibition of growth at 10 µM in [1] came out at 31.4%; in experiment [2], 25.8%; in [37] it was 21%.
`Cn1cccc1-c1cc(-c2ccc(Br)cc2)n(S(=O)(=O)c2ccccc2)c(=O)c1C#N`: the inhibition of growth at 10 µM in experiment [3] stood at 26.6%; in experiment [5] it was 22.5%; in experiment [2] it was 26%; in [6], 55.9%; in experiment [7], 22.2%; in experiment [8], 59.7%.
Turning to `Cn1cccc1-c1cc(-c2ccc(Br)cc2)n(N=O)c(=O)c1C#N`, the inhibition of growth at 10 µM in experiment [1] was 37.5%; in experiment [34], 25.7%; in experiment [2], 28.2%; in [37] it was 32.8%.
Turning to `COc1ccc(-c2cc(-c3cccn3C)c(C#N)c(=O)n2C=O)cc1OC`, the inhibition of growth at 10 µM is 28.5% in [3], 21.4% in experiment [5], 47.1% in [6] and 57.1% in experiment [8].
For the compound `COc1ccc(-c2cc(-c3cccs3)n(Cc3ccccc3)c(=O)c2C#N)cc1`, the inhibition of growth at 10 µM in [35] came to 23.5%; in [5] it was 50.4%; in experiment [2], 26.8%; in [7], 21%.
As to `CCn1c(-c2ccc(Br)cc2)cc(-c2cccn2C)c(C#N)c1=O`, the inhibition of growth at 10 µM in experiment [38] was found to be 30%; in experiment [18], 28%; in experiment [4], 35%; in experiment [2] it was 28.3%; in experiment [6], 62.5%.
